Tests used:
[1] = tested on: Pmel CD8+ T cells co-cultured with B16F10 target cells; assay: LDH release cytotoxicity assay of Pmel CD8+ T cells on B16F10 targets; type: cell-based, mouse; conditions: gp100-stimulated Sirt2KO (Sirt2−/−) Pmel T cells on B16F10 targets, 10 mM 2-DG
Method: Evaluation of functional cytotoxic activity was performed using Pierce™ LDH Cytotoxicity Assay Kit (ThermoFisher Scientific) according to the manufacturer's protocol. B16F10 cells were used as targets. Mouse CD3^+ TILs isolated from subcutaneous B16F10 tumor nodules and CD8^+ enriched T cells from gp100-stimulated Pmel splenocytes were used as effector cells. Briefly, target B16F10 tumor cells were co-cultured with effector cells in 96-well round-bottom microplates at the indicated effector:target ratios. After 6 hours, the percentage of specific LDH release was calculated according to the following formula: % cell lysis=(experimental value effector cells spontaneous release target cells spontaneous release)×100/(target cells maximum release target cells spontaneous release), where “experimental” corresponds to the experimental signal value, “effector spontaneous” to spontaneous release of LDH from effector cells alone, “target spontaneous” to spontaneous release of LDH from target cells alone and “maximum release” to the maximum release of LDH from target cells in medium containing 1% Triton X-100.
Evaluation of functional cytotoxic activity was performed using Pierce™ LDH Cytotoxicity Assay Kit (Thermo Fisher Scientific) according to the manufacturer's protocol. […]

[2] = tested on: CD3+ TILs from B16F10 tumor nodules; assay: IFN-γ ELISPOT on mouse CD3+ TILs re-challenged with irradiated B16F10 cells; type: cell-based; conditions: CD3+ TILs from subcutaneous B16F10 nodules of Sirt2KO versus WT mice
Method: Lymphocytes from subcutaneous tumors were isolated by dicing the tissues and enzymatic digestion in PBS containing collagenase type 4 (2 mg/ml, Worthington Biochemical) and DNase I (0.25 mg/ml, Sigma) for 45 min with occasional shaking at 37° C. Cell suspensions were then twice filtered through 100 μm and 40 μm cell strainers (ThermoFisher Scientific) to single-cell suspension followed by PBS wash and red blood cell lysis using RBC Lysis Buffer (Biolegend). TILs were finally isolated by density gradient centrifugation using Percoll (GE Healthcare) and further purified using CD3c MicroBeads Kit™ (Miltenyi Biotec) according to the manufacturer's instructions. […]
(§1) The number of IFN-γ producing cells was evaluated in an ELISPOT assay. […] After washing steps and biotinylated anti-IFN-γ antibody (R4-6A2, ThermoFisher Scientific)+Streptavidin-HRP (BD Bioscience) labeling, spots were detected using AEC Substrate Kit (BD Biosciences) and counted using an AID ELISPOT Reader System (Autoimmun Diagnostika GmbH). […]
(§2) The number of IFN-γ producing cells was evaluated in an ELISPOT assay. […] After washing steps and successive biotinylated anti-IFN-γ antibody (R4-6A2, Mabtech, Inc.) and Streptavidin-HRP (BD Bioscience) labeling, spots were detected using AEC Substrate Kit (BD Biosciences) and counted using an AID ELISPOT Reader System (Autoimmun Diagnostika GmbH).

Pmel T cells = assay: IFN-γ ELISPOT on gp100-stimulated Pmel T cells; type: cell-based, mouse; conditions: gp100-stimulated Sirt2KO (Sirt2−/−) Pmel T cells
Method: Spleens and/or Lymph nodes (LN) were collected from WT, Sirt2KO, Pmel/WT, Pmel/Sirt2KO mice and processed into single-cell suspensions. CD3^+, CD4^+ and CD8^+ T cells were negatively enriched using Mouse Pan T cell, CD4^+ T cell and CD8^+ T cell isolation Kits™ respectively according to the manufacturers' instructions. The purity of the isolated cells was confirmed by flow cytometry (>95%). Purified T cells were cultured in completed RPMI 1640 medium (ThermoFisher Scientific) supplemented with 10% (vol/vol) Fetal bovine serum (FBS, Biowest) and 1% (vol/vol) penicillin/streptomycin (P/S, Thomas Scientific Inc). […]
as §1, §2

SIRT2 = biological target: T1, SIRT2 (Homo sapiens, UniProt Q8IXJ6); conditions: cited from earlier work
T1 sequence (Q8IXJ6 1-389): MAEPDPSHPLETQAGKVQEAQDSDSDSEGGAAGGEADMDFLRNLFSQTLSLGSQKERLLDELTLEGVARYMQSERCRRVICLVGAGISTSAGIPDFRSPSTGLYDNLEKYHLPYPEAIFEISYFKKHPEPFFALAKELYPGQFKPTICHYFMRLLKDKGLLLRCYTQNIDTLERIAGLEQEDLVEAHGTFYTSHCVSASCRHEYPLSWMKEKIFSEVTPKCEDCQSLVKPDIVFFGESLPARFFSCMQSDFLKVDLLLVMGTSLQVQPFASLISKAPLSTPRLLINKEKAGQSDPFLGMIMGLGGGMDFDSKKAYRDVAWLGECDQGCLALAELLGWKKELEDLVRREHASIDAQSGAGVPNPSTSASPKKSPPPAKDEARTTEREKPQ

SIRT3 = biological target: T2, SIRT3 (Homo sapiens, UniProt Q9NTG7); conditions: cited from earlier work
T2 sequence (Q9NTG7 1-399): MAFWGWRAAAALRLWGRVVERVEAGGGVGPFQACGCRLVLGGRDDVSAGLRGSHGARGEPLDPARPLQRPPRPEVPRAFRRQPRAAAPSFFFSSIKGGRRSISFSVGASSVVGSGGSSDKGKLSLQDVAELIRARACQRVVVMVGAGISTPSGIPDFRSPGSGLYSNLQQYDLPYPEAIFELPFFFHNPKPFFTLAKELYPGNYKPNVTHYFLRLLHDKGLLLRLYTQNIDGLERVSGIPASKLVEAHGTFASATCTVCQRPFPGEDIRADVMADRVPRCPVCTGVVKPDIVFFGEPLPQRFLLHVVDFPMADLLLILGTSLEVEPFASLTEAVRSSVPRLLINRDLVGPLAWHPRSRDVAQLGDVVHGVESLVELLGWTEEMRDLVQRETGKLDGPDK

SIRT1 = biological target: T3, SIRT1 (Homo sapiens, UniProt Q96EB6); conditions: cited from earlier work
T3 sequence (Q96EB6 1-747): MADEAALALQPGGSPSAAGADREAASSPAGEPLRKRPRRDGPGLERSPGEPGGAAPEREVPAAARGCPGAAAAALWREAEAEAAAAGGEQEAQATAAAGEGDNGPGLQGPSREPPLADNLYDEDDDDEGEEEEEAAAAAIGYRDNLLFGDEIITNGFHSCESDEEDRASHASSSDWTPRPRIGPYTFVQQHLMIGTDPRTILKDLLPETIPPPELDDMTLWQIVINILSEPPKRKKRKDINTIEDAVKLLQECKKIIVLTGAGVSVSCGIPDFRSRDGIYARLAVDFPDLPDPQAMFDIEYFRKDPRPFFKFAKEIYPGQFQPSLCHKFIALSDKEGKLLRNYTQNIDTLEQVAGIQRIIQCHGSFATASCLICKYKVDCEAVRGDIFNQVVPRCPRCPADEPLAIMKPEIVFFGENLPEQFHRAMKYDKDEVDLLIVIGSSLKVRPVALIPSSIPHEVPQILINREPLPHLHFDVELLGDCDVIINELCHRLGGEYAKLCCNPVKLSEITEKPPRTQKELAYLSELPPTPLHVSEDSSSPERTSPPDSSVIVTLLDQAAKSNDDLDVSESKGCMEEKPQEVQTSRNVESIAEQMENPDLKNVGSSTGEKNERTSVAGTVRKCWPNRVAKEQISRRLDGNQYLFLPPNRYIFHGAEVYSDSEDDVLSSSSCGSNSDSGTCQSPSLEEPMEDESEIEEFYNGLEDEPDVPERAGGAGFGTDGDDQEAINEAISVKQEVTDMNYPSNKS

Compound: O=CC[C@@H](O)[C@H](O)[C@H](O)CO [2-DG, 2-deoxyglucose]
- cytotoxicity [1]: profoundly suppressed
- IFN-γ release [2]: suppressed
- IFN-γ release (Pmel T cells): profoundly suppressed

Compound: CCOC(=O)c1ccc(NC(=O)c2ccc3c(c2)C2C4CCC(C4)C2C(c2ccccc2)N3)cc1 (stereo not drawn) [AEM2]
- IC50 (SIRT2): 3.8 µM

Compound: O=C(Nc1cccc([N+](=O)[O-])c1)c1cccc(S(=O)(=O)N2CCCCCC2)c1 [AK-1]
- IC50 (SIRT3): > 50 µM
- IC50 (SIRT1): > 50 µM

Source: patent US20220017863A1, “SIRT2-ABLATED CHIMERIC T CELLS” (H. Lee Moffitt Cancer Center and Research Institute, Inc., priority 2019, published 2022)
